According to US10300070B2, “Metabolically-activated drug conjugates to overcome resistance in cancer therapy” (The Brigham and Women's Hospital, Inc., priority 2014, dated 2019):

Legend:
[1] = test system: MDA-MB-231 parent or DTC; assay: Cell viability (MTS) and trypan blue exclusion of parent or DTC treated with doxorubicin; format: cell-based; conditions: co-incubated with dox, 48 h
Procedure: (§1) MDA-MB-231 (ATCC), MDA-MB-468 and 4T-1 mammary carcinoma cells (ATCC) were cultured in DMEM containing 10% Fetal Bovine Serum (FBS) at 37 C and 5% CO2. DU145 and DU145-TxR were provided by A. Mizokami^63 and cultured in DMEM containing 10% FBS, resistant line included 100 nM paclitaxel in the culture media. During treatments with chemotherapeutics, cells were grown to semi-confluence and treated with indicated concentrations of chemotherapy in serum-containing medium for indicated time points. When small molecule inhibitors were included in treatments, they were added simultaneously with chemotherapy. For siRNA gene knockdown, cells were transfected with silencer-select siRNA plasmids (Ambion, Invitrogen, Grand Island, N.Y.) pan-CD44(1) (s2682) panCD44(2) (s2681), siHIF1A (s6539) using lipofectamine 2000 (Invitrogen, Carlsbad Calif.) following manufacturer protocol and cultured for 72 hours prior to treatment. Scrambled siRNA was used as a control. For chemotherapy treatment experiments: Cancer cells were plated at a density of 0.5-1×10^5 cells/ml and allowed to adhere for 24-48 hr. When cells reached ˜70% confluency they were treated with cytotoxics at indicated concentrations for 24-48 hours and utilized for subsequent assays. For experiments in which a shorter incubation was used (i.e. 15 min-4 hours) fresh media was added 24 hours prior to addition of chemotherapy suspended to stock concentration in PBS. For generation of DTC: Cells were treated for 48 hours with chemotherapy. Following washes with PBS, adherent cells were trypsinized and re-plated at a density of 1.5-2×10^5 cells/ml and cultured in serum-containing medium. After 24 hours incubation, floating cells were removed and remaining cells were washed with 1× PBS and considered as chemotherapy-tolerant cells. A population of drug naïve parent cells were always cultured alongside DTC and fresh media was added at every interval that experimental population (DTC) received fresh media.
Following drug incubation, cells were washed and suspended in phenol red-free RPMI or DMEM and subsequently treated with MTS reagent using manufacturer protocol (Promega, Madison, Wis.). Trypan blue exclusion was used to validate experiments and evaluate % of dead cells performed by bright field microscopy.

[2] = test system: explant tumor tissue from taxane-refractory breast cancer patients; assay: Human refractory breast cancer explant model, glucose uptake; format: cell-based; conditions: chemotherapy in the presence of hexokinase inhibition, 72 h
Procedure: Anonymous human breast cancer tissues (N=7) from patients refractory to taxane-containing regimens and varying stages of disease were obtained from Mitra Biotech collected under IRB approval from HCG Bangalore Institute of Oncology with due consent. Fresh tumor tissues were collected from breast cancer patients immediately after surgical resection at HCG cancer hospital, Bangalore, India. The tumor samples were transported to the laboratory at 4° C., in appropriate transport buffer within 60 minutes post-resection, for ex-vivo studies and molecular and pathological evaluation. Tissues were cut into thin sections and cultured in 96 well plate using optimized conditions[BISWANATH REF]. Tumors were treated with a taxane, or doxorubicin at Cmax for 72 h. DMSO was used as a vehicle control. After treatment, tumor cell viability was measured. Immunohistochemistry (IHC) was performed as described in methods. Glucose uptake was evaluated 72 h post culture.
Glucose uptake assay was carried 72 hours post culture. Two micro liter of culture supernatant was added to 200 μl of Glucose reagent (Liquixx Glucose Reagent, Erbaa). All readings along with glucose standard (100 mg/dL) were run in triplicate. The plate was incubated at room temperature for 5 minutes on a plate shaker at medium speed and the absorbance was measured at 505 nm using multimode plate reader (Perkin Elmer).

[3] = test system: mice; assay: Systemic toxicity in treated 4T-1 tumor-bearing mice (hair and weight loss, spleen, heart caspase-3); format: in vivo
Procedure: (§2) An in-vivo study was designed creating drug-schedules following successive doses of docetaxel at MTD or vehicle control in distinct groups. […] Finally, in effort to dissect the dosing-response of MADC vs. free drugs, a dose-titration of doxorubicin+PI103 or MADC in sequence with docetaxel was performed. […] Finally, a preliminary bio distribution study of the free doxorubicin or conjugate was performed on heterotopically-implanted 4T-1 syngeneic mammary carcninoma model. Mice were treated with 20 mg/kg equivalent of MADC or Doxorubicin or a vehicle control group (N=3 per group). […] Organ lysate was then centrifuged at 15,000 g and supernatant was filtered through a 0.2 mm filter syringe before aliquoted into quadruplicate wells of a 96-well plate. […] Autofluorescence determined from vehicle-treated control groups was subtracted from experimental groups and final fluorescence was determined as % arbitrary fluorescence units (AFU)/mg tissue as % increase from vehicle treated control values.

[4] = 20 mg/kg equivalent, 24 h, heterotopic 4T-1 model
Procedure: as §2

[5] = test system: 4T-1 mouse mammary carcinoma; format: in vivo, mice
Procedure: Tumor volumes were assessed by the following formula: (Width×Width×length)/2 and values were utilized to calculate tumor specific growth rate (SGR) by the algorhythm (ln [V2/V1]/[t2−t1)] where V=volume and t=time in days^64.
An in-vivo study was designed creating drug-schedules following successive doses of docetaxel at MTD or vehicle control in distinct groups. […] Finally, in effort to dissect the dosing-response of MADC vs. free drugs, a dose-titration of doxorubicin+PI103 or MADC in sequence with docetaxel was performed.

[6] = test system: ROS (hydrogen peroxide); conditions: 10-20 uM of paclitaxel; cited from earlier work
[7] = test system: DTC; assay: Total intracellular reduced glutathione (GSH) in drug tolerant cells; format: cell-based; conditions: acute (3 hours) exposure; ML-265 10 μM, catalase 2000 U/ml
Procedure: In vitro detection of glucose uptake was performed using 2-(N-7-Nitrobenz-2-oxa-1,3-diazol-4-yl)Amino)-2-Deoxyglucose (2-NBDG) (Invitrogen, Carlsbad Calif.), dissolved in DMSO to 50 mM. Cells were pre-treated with kinase inhibitors or vehicle for 3 hours in glucose- and phenol red-free media before addition of 50 μM 2-NBDG and subsequently read by FACS ex/em 488/535 nm. ROS was determined by pre-loading cells with CM-DCFDA (1 μM), washed 2 times with PBS and subsequently treated with H2O2 or vehicle; when kinase inhibitors were included in treatment, cells were first incubated with inhibitor for 3 hours prior to CM-DCFDA loading. Fluorescence was then determined by FACS ex/em 488/535 nm. For the following assays, cells were trypsinized and counted by Nexcelom cell counter (Lawrence, Mass.) prior to being subjected to analysis in order to achieve a quantitative value per cell: Reduced glutathione was determined using a colorimetric glutathione recycling system by DTNB following manufacturer protocol (Biovision, Milpitas Calif.). […] Protein synthesis was measured by two means 1. […] Fluorescence was detected by FACS as described below. […] GFP protein translation was determined by fluorescent microscopy. […] Individual cells were evaluated for fluorescent intensity of caspase-3 activity (red signal intensity) and green fluorescent protein intensity. […]

[8] = test system: MDA-MB-231 parent or DTC; assay: Glucose uptake (2-NBDG) determined by FACS; format: cell-based; conditions: MDA-MB-231 DTC incubated with catalase for 6 hours
Procedure: as §1
In vitro detection of glucose uptake was performed using 2-(N-7-Nitrobenz-2-oxa-1,3-diazol-4-yl)Amino)-2-Deoxyglucose (2-NBDG) (Invitrogen, Carlsbad Calif.), dissolved in DMSO to 50 mM. Cells were pre-treated with kinase inhibitors or vehicle for 3 hours in glucose- and phenol red-free media before addition of 50 μM 2-NBDG and subsequently read by FACS ex/em 488/535 nm. ROS was determined by pre-loading cells with CM-DCFDA (1 μM), washed 2 times with PBS and subsequently treated with H2O2 or vehicle; when kinase inhibitors were included in treatment, cells were first incubated with inhibitor for 3 hours prior to CM-DCFDA loading. Fluorescence was then determined by FACS ex/em 488/535 nm. For the following assays, cells were trypsinized and counted by Nexcelom cell counter (Lawrence, Mass.) prior to being subjected to analysis in order to achieve a quantitative value per cell: Reduced glutathione was determined using a colorimetric glutathione recycling system by DTNB following manufacturer protocol (Biovision, Milpitas Calif.). ATP analysis was performed using the ATP colorimetric analysis kit (Biovision) according to manufacturer protocol. Reductive stress was detected using the Enzo nitroreductase hypoxia kit (Enzo Life Sciences, Ann Arbor Mich.) following manufacturer protocol and visualized by fluorescent microscopy; a set of non-docetaxel-treated control cells loaded with fluorescent probe were compared against docetaxel-treated cells to derive a % redox stress increase which was calculated as fluorescence intensity of nitroreductase probe per cell and expressed as increase from vehicle. Protein synthesis was measured by two means 1. L-azidohomoalanine amino acid analog of methionine containing an azide moiety was added to cultured cells (parent or DTC) for 3 hours which is incorporated into proteins during active protein synthesis. […]

O=C(O)c1nn(Cc2ccc(Cl)cc2Cl)c2ccccc12 [Lonidamine]
response to dox in combination with inhibitor, DTC ([1]; DTC, PI103 5 μM, lonidamine 10 μM, KB-458 and KB-697 10 μM): exquisitely responsive, overtly driven to cell death by dox in combination
response to dox in combination with inhibitor, parent cells ([1]; drug naïve parent cells): little synergism or a reversion of synergy
glucose uptake of explant tumor tissue [2]: diminished capacity for glucose uptake

COc1cccc2c1C(=O)c1c(O)c3c(c(O)c1C2=O)C[C@@](O)(C(=O)COC(=O)NCCSSCCNC(=O)Oc1cccc(-c2nc(N4CCOCC4)c4oc5ncccc5c4n2)c1)CC3OC1C[C@@H](C)[C@@H](O)[C@@H](N)C1 (stereo partly drawn) [MADC]
systemic toxicity (toxic burden) ([3]; MADC vs. free drug combination groups): significant reduction of toxic burden
hair and weight loss and myelosuppression indicated by splenic miniaturization ([3]; MADC-treated cohorts vs free drug combination): significantly attenuated
splenic miniaturization in dose-titration ([3]; lower concentration (3 mg/kg), in sequence with docetaxel): negligible
cardiotoxicity (activated caspase-3, immunoblots of whole heart lysate) ([3]; mouse, in vivo): lower indication of cardiotoxicity
biodistribution (organ accumulation by fluorescence) [4]: greater concentration of the conjugate in the lung compared to the free drug administration
tumor growth suppression, in sequence with docetaxel ([5]; given after successive doses of docetaxel at MTD): elicited suppression of tumor growth, largely comparable to the combination of free drugs in similar sequence
tumor growth suppression, in sequence with vehicle ([5]; given after vehicle control): operated poorly to suppress tumor growth
dose-titration, tumor growth, lower concentration ([5]; in sequence with docetaxel, 3 mg/kg): greater effect than free drug combination
dose-titration, tumor growth, 5 mg/kg and 10 mg/kg ([5]; in sequence with docetaxel, 5 mg/kg and 10 mg/kg): saturating concentrations

CC(=O)O[C@H]1C(=O)[C@@]2(C)[C@H]([C@H](OC(=O)c3ccccc3)[C@]3(O)C[C@H](OC(=O)[C@H](O)[C@@H](NC(=O)c4ccccc4)c4ccccc4)C(C)=C1C3(C)C)[C@]1(OC(C)=O)CO[C@@H]1C[C@@H]2O [paclitaxel]
increase from basal ROS levels [6]: 3-5 ×

B1: catalase: an endogenous modulator of redox stress (protein, UniProt P04040 2-527, looked up)
Catalase: ADSRDPASDQMQHWKEQRAAQKADVLTTGAGNPVGDKLNVITVGPRGPLLVQDVVFTDEMAHFDRERIPERVVHAKGAGAFGYFEVTHDITKYSKAKVFEHIGKKTPIAVRFSTVAGESGSADTVRDPRGFAVKFYTEDGNWDLVGNNTPIFFIRDPILFPSFIHSQKRNPQTHLKDPDMVWDFWSLRPESLHQVSFLFSDRGIPDGHRHMNGYGSHTFKLVNANGEAVYCKFHYKTDQGIKNLSVEDAARLSQEDPDYGIRDLFNAIATGKYPSWTFYIQVMTFNQAETFPFNPFDLTKVWPHKDYPLIPVGKLVLNRNPVNYFAEVEQIAFDPSNMPPGIEASPDKMLQGRLFAYPDTHRHRLGPNYLHIPVNCPYRARVANYQRDGPMCMQDNQGGAPNYYPNSFGAPEQQPSALEHSIQYSGEVRRFNTANDDNVTQVRAFYVNVLNEEQRKRLCENIAGHLKDAQIFIQKKAVKNFTEVHPDYGSHIQALLDKYNAEKPKNAIHTFVQSGSHLAAREKANL
total levels of reduced glutathione (GSH) in DTC [7]: diminished total levels of reduced glutathione in DTC
glucose consumption (2NBDG uptake) in DTC [8]: reduced potential for glucose consumption
